Literature values as cited in patent publication US20250186347A1 (priority 2025, published 2025).

Tested on: E. faecalis ampicillin-resistant strains
Settings: reports

MIC: 4 to 8 µg/mL
SMILES: CC1(C)S[C@@H]2[C@H](NC(=O)[C@H](N)c3ccccc3)C(=O)N2[C@H]1C(=O)O [ampicillin]
